Entries after “also recorded” stand apart in the source; their conditions may differ.
Legend:
glutamate = assay: Metabolomic analysis of plasma samples: glutamate level; format: in vivo, human
Description: (§1) Blood samples were taken at 4 days and 6 weeks following treatment. Plasma samples were isolated from whole blood and used for global metabolomic profiling.
(§2) At the time of analysis, samples were thawed and extracts prepared according to a standard protocol, which is designed to remove protein, dislodge small molecules bound to protein or physically trapped in the precipitated protein matrix, and recover a wide range of chemically diverse metabolites. A separate aliquot of each experimental plasma sample was taken then pooled for the creation of “Client Matrix” (CMTRX) samples. These CMTRX samples were injected throughout the platform run and served as technical replicates, allowing variability in the quantitation of all consistently detected biochemicals to be determined and overall process variability and platform performance to be monitored. Extracts of all experimental and CMTRX samples were split for analysis on the GC/MS and LC/MS/MS platforms.
(§3) The CMTRX technical replicate samples were treated independently throughout the process as if they were study samples. All process samples (CMTRX, GROBs—a mixture of organic components used to assess GC column performance, process blanks, etc.) were spaced evenly among the injections for each day and all client samples were randomly distributed throughout each day's run. Data were collected over eight platform run days and thus, ‘block normalized’ by calculating the median values for each run-day block for each individual compound. […] Missing values (if any) were assumed to be below the level of detection for that biochemical with the instrumentation used and were imputed with the observed minimum for that particular biochemical.
A number of internal standards were added to each experimental and process standard sample just prior to injection into the mass spectrometers. A measure of the platform variability was determined by calculating the median relative standard deviation (RSD) for these internal standards. […] Because these standards were added to the samples immediately prior to injection into the instrument, this value reflects instrument variation. In addition, the median relative standard deviation (RSD) for the biochemicals that were consistently measured in the CMTRX represents the total variability within the process for the actual experimental samples and the variability in quantitation of the endogenous metabolites within these samples (Table 2).
Biochemical data were analyzed by ANOVA contrasts and a Two-way ANOVA.
(§4) Statistical analyses of the data were performed on natural log-transformed data to reduce the effect of any potential outliers in the data. T-test comparisons were calculated using the one or both of the statistical software analysis programs: Array Studio (Omicsoft, Inc) or ‘R’ from the Free Software Foundation, Inc.
(§5) For t-test comparisons, within each group: placebo, lurasidone and olanzapine, the early versus the late time point was compared (i.e., 4 days versus 6 weeks). In addition, both lurasidone and olanzapine were compared with placebo at the appropriate time point and then lurasidone was compared with olanzapine at both 4 days and 6 weeks.

732 biochemicals = assay: Global metabolomic profiling: number of biochemicals significantly changed; format: in vivo, human; settings: Day 42; for number of biochemicals significantly decreased / number of biochemicals significantly increased: of 732 biochemicals; for share of biochemicals significantly changed / number of biochemicals whose serum levels were significantly changed: of a total of 732 biochemicals; for number of biochemicals whose serum levels were significantly changed: p≦0.05
Description: as §1, §2, §3
Two parameters are typically evaluated when considering statistical significance, namely the p-value and the q-value. […] The q-value describes the false discovery rate; a low q-value (q≦0.10) is an indication of high confidence in a result. Because of the multiple testing occurring in the data sets produced by metabolomic studies, data is often evaluated for false positives.
as §4, §5

histamine H1 = histamine H1 (Homo sapiens, UniProt P35367); settings: reported; cited from earlier work
Sequence of histamine H1 (P35367 whole entry): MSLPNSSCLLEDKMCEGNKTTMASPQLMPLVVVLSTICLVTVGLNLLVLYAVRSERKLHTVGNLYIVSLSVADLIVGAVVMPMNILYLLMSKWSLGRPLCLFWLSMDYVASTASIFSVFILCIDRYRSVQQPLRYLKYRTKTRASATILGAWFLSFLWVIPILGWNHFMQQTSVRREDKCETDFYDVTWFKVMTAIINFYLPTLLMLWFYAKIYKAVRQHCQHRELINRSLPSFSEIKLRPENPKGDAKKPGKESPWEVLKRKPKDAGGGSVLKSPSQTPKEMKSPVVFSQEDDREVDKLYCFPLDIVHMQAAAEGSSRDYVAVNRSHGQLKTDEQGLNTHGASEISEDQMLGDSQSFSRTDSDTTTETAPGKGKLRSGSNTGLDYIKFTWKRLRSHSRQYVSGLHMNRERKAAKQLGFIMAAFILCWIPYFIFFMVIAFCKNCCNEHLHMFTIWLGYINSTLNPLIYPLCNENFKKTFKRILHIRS

dopamine D2 = dopamine D2 (Homo sapiens, UniProt P14416); settings: reported; cited from earlier work
Sequence of dopamine D2 (P14416 whole entry): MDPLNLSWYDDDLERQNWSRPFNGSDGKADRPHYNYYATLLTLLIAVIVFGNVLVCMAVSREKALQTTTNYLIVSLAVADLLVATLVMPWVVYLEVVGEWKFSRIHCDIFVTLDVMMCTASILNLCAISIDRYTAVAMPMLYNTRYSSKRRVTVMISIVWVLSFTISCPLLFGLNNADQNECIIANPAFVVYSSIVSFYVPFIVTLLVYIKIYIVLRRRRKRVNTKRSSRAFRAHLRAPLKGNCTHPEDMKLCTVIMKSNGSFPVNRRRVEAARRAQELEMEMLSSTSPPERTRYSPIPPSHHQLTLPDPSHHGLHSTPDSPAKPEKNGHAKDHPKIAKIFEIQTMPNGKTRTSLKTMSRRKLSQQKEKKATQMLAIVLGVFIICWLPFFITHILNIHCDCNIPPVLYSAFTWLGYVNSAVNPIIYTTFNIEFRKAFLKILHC

[1] = target: T1, noradrenaline α2C receptors (Homo sapiens, UniProt P18825); settings: reported; cited from earlier work
T1 sequence (P18825 1-462): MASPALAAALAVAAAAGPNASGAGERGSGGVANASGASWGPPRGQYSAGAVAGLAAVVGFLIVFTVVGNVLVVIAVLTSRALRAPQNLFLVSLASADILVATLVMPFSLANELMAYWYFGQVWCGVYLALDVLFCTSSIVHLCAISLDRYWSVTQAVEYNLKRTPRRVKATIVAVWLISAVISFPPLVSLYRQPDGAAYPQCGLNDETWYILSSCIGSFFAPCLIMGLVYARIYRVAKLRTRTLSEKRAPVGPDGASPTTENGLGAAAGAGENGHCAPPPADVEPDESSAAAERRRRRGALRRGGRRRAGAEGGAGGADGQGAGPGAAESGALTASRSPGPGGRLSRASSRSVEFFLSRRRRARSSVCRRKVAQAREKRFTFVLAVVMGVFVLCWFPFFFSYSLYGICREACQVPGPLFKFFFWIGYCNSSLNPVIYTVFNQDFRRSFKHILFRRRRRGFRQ

5-HT2A = 5-HT2A (Homo sapiens, UniProt P28223); settings: reported; cited from earlier work
Sequence of 5-HT2A (P28223 whole entry, species assumed): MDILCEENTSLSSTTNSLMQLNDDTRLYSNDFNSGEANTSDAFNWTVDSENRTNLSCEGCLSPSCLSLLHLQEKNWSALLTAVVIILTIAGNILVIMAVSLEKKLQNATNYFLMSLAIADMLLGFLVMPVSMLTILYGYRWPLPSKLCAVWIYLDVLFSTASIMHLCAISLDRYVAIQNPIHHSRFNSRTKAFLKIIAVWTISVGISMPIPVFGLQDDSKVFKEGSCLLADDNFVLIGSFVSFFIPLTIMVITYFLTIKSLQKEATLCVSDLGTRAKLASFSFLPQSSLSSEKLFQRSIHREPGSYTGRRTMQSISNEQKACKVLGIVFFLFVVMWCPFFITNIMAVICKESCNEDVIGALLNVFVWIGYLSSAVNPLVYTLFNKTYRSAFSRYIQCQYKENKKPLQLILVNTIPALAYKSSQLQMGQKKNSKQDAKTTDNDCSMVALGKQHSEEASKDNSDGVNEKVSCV

serotonin 5-HT1A = target: T2, serotonin 5-HT1A (Homo sapiens, UniProt P08908); settings: reported; cited from earlier work
T2 sequence (P08908 1-422): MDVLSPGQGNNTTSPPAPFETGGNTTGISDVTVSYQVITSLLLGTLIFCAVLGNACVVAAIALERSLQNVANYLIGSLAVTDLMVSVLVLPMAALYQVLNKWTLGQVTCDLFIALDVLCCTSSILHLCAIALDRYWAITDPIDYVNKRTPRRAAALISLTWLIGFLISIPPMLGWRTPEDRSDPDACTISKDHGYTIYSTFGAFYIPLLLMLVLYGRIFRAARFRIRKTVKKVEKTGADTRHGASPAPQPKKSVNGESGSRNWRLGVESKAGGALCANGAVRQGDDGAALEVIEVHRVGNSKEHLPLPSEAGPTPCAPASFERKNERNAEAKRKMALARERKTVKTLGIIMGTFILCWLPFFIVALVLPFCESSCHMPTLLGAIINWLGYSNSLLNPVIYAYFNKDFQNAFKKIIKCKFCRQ

serine = assay: Metabolomic analysis: serine level; set-up: species or system human; settings: in vivo
Description: as §1, §2
(§6) The CMTRX technical replicate samples were treated independently throughout the process as if they were study samples. All process samples (CMTRX, GROBs—a mixture of organic components used to assess GC column performance, process blanks, etc.) were spaced evenly among the injections for each day and all client samples were randomly distributed throughout each day's run. […]

muscarinic M1 receptors = target: T3, muscarinic M1 receptors (Homo sapiens, UniProt P11229); settings: reported; cited from earlier work
T3 sequence (P11229 1-460): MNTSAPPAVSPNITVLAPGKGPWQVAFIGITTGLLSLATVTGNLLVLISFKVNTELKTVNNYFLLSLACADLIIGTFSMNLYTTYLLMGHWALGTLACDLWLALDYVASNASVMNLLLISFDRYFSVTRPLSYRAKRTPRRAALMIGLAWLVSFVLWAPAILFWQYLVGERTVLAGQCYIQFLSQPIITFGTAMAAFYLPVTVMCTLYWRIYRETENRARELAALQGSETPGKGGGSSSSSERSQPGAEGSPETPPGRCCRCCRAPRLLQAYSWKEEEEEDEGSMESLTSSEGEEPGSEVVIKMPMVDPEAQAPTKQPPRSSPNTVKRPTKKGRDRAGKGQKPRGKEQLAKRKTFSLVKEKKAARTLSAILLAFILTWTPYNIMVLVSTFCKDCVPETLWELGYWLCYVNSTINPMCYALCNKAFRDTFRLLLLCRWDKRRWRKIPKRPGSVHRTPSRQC

[2] = tested on: patient diagnosed schizophrenia; assay: PANSS scoring, 6-week double-blind treatment; format: in vivo, human; settings: 6 weeks; treatment responders only; lurasidone 40 mg/d, olanzapine 15 mg/d, placebo; FIG. 1
Protocol: Positive and Negative Syndrome Scale (PANSS) was measured according to the procedures well-established in the art. Clinical interviews were conducted by qualified trained professionals. A patient diagnosed schizophrenia was rated from 1 to 7 on 30 different symptoms based in the interview. The 30 symptoms assessed were: (1) positive symptoms, i.e., delusions, conceptual disorganization, hallucinations, hyperactivity, grandiosity, suspiciousness/persecution and hostility; (2) negative symptoms, i.e., blunted affect, emotional withdrawal, poor rapport, passive/apathetic social withdrawal, difficulty in abstract thinking, lack of spontaneity and flow of conversation and stereotyped thinking; and (3) general psychopathology symptoms, i.e., somatic concern, anxiety, guilt feelings, tension, mannerism and posturing, depression, motor retardation, uncooperativeness, unusual thought content, disorientation, poor attention, lack of judgment and insight, disturbance of volition, poor impulse control, preoccupation and active social avoidance. […]
Prior to the baseline visit, subjects underwent a 3-7 day washout of their current antipsychotic medication and randomized to receive either lurasidone (40 mg per day), olanzapine (15 mg per day) or placebo for 6 weeks. Symptom improvement was assessed by the change in PANSS score (total and subscale scores) from baseline to study endpoint. […]

[3] = tested on: positive and negative symptoms of schizophrenia; settings: several placebo-controlled trials; cited from earlier work
aspartate = assay: Metabolomic analysis: aspartate level; set-up: species or system human; settings: in vivo
Description: as §1, §2, §6

glycine = assay: Metabolomic analysis: glycine level; set-up: species or system human; settings: in vivo
Description: as §1, §2, §6

5-HT7 = 5-HT7 (Homo sapiens, UniProt P34969); settings: reported; cited from earlier work
Sequence of 5-HT7 (P34969 whole entry, species assumed): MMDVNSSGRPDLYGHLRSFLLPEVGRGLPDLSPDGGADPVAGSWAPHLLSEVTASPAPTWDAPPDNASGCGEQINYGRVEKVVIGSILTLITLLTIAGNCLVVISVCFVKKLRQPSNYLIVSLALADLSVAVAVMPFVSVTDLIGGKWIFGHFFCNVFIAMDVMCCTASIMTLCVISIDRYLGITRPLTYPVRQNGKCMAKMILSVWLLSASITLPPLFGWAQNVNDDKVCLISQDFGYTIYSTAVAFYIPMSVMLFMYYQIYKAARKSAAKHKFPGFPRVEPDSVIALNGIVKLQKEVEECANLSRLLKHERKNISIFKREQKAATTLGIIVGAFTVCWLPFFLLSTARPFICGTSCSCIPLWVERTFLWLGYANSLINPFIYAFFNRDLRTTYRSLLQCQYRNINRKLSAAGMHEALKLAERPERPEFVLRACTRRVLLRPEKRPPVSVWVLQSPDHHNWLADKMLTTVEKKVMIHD

[4] = Total Sample of treatment responders, lurasidone 40 mg/d, olanzapine 15 mg/d, plasma
[5] = subgroup PANSS Negative Change at Week 6 ≦median change score
[6] = subgroup PANSS Positive Change at Week 6 >median change score
[7] = subgroup PANSS Positive Change at Week 6 ≦median change score
[8] = subgroup PANSS Total Change at Week 6 >median change score
[9] = subgroup PANSS Total Change at Week 6 ≦median change score

Compound: Cc1cc2c(s1)Nc1ccccc1N=C2N1CCN(C)CC1 [Olanzapine, olanzapine]
- Glutamate Levels at Week 6, mean (SD) (glutamate; [4]): 1.00 (0.24)
- Glutamate Levels at Week 6, mean (SD) (glutamate; subgroup PANSS Negative Change at Week 6 >median change score, *lurasidone vs. olanzapine P = 0.014, vs placebo P = 0.025): 0.97 (0.26)
- Glutamate Levels at Week 6, mean (SD) (glutamate; [5]): 1.03 (0.23)
- Glutamate Levels at Week 6, mean (SD) (glutamate; [6]): 1.02 (0.27)
- Glutamate Levels at Week 6, mean (SD) (glutamate; [7]): 0.98 (0.22)
- Glutamate Levels at Week 6, mean (SD) (glutamate; [8]): 1.01 (0.27)
- Glutamate Levels at Week 6, mean (SD) (glutamate; [9]): 0.99 (0.26)
- number of biochemicals significantly decreased (732 biochemicals): 46
- number of biochemicals significantly increased (732 biochemicals): 54
- share of biochemicals significantly changed (732 biochemicals): 14%
- number of biochemicals whose serum levels were significantly changed (732 biochemicals): 100

Compound: O=C1[C@@H]2[C@H]3CC[C@H](C3)[C@@H]2C(=O)N1C[C@@H]1CCCC[C@H]1CN1CCN(c2nsc3ccccc23)CC1 [Lurasidone]
- affinity for histamine H1 (histamine H1): minimal to no affinity
- Glutamate Levels at Week 6, mean (SD) (glutamate; [4]): 1.12 (0.34)
- overall glutamate level compared with the placebo group (glutamate; days 4 and weeks 6, treatment responders, FIG. 2): significantly greater
- Glutamate Levels at Week 6, mean (SD) (glutamate; [5]): 1.00 (0.28)
- Glutamate Levels at Week 6, mean (SD) (glutamate; [6]): 1.14 (0.41)
- Glutamate Levels at Week 6, mean (SD) (glutamate; [7]): 1.09 (0.23)
- Glutamate Levels at Week 6, mean (SD) (glutamate; [8]): 1.13 (0.38)
- Glutamate Levels at Week 6, mean (SD) (glutamate; [9]): 1.09 (0.27)
- glutamate level in responders with high improvement in negative symptoms compared with other responder groups (glutamate; week 6, PANSS negative change above median, FIG. 3): significantly higher increase; also recorded: significantly higher than all other responder groups
- relation between levels of glutamate and change in PANSS negative subscore (glutamate; week 6, scatterplot FIG. 4): proportional
- affinity for dopamine D2 (dopamine D2): high affinity
- affinity for noradrenaline α2C receptors [1]: high affinity
- affinity for 5-HT2A (5-HT2A): high affinity
- number of biochemicals significantly decreased (732 biochemicals): 14
- number of biochemicals significantly increased (732 biochemicals): 11
- share of biochemicals significantly changed (732 biochemicals): 3%
- number of biochemicals whose serum levels were significantly changed (732 biochemicals): 25
- affinity for serotonin 5-HT1A (serotonin 5-HT1A): high affinity; also recorded: moderate affinity
- level of serine upon treatment (serine): increased
- affinity for muscarinic M1 receptors (muscarinic M1 receptors): minimal to no affinity
- improvement in PANSS total, positive and negative subscores across treatment groups [2]: comparable
- ameliorating the positive and negative symptoms of schizophrenia [3]: effective
- level of aspartate upon treatment (aspartate): increased
- level of glycine upon treatment (glycine): increased
- affinity for 5-HT7 (5-HT7): high affinity
